In patent publication US8440718B2, “Modulation of inflammation related to columnar epithelia” (The Brigham and Women's Hospital, Inc., priority 1991, dated 2013):
Marks after values point to notes of the source that are not given here. Blank lines part the entries; values can stand above or below the compound they belong to.

How the values were obtained:
[1] = tested on: human PMN migration across inverted T84 epithelial monolayers; test: PMN transepithelial migration assay, basolateral-to-apical direction (inverted monolayers), fMLP gradient, myeloperoxidase readout; format: cell-based; conditions: for inhibition of PMN migration, basolateral-to-apical (total MPO activity): 10 nM, 15 min pre-incubation 37°C, 1 μM fMLP, 120 min
Description: Cell culture Approximately 350 epithelial monolayers were used for these studies. T84 intestinal epithelial cells (passages 70-95) were grown and maintained as confluent monolayers on collagen coated permeable support. Monolayers were grown on 0.33 cm^2 ring-supported polycarbonate filters (Costar Corp., Cambridge, Mass.) and utilized 6-14 days after plating as described in Example 2. Transepithelial resistance to passive ion flow was measured as described in Parkos C. A., et al. (1991). J. Clin. Invest. 88: 1605-1612); and Parkos C. A., et al. (1992). J. Cell. Biol. 117: 757-764). Inverted monolayers used to study migration of PMN in the basolateral-to-apical direction were constructed as described in Parkos C. A., et al. (1991). J. Clin. Invest. 88:1605-1612).
Migration assay: The PMN transepithelial migration assay has been detailed in Nash S., et al. (1987). J. Clin. Invest. 80: 1104-1113; Nash S., et al. (1991). J. Clin. Invest 87: 1474-1477); Parkos C. A., et al. (1991). J. Clin. Invest. 88: 1605-1612); and Parkos C. A., et al. (1992). J. Cell. Biol. 117: 757-764. Briefly, human PMN were isolated from normal human volunteers and suspended in modified HBSS (without Ca^2+ and Mg^2+, with 10 mM Hepes, pH 7.4, Sigma) at a concentration of 5×10^7/ml. Prior to addition of PMN, T84 monolayers were extensively rinsed in HBSS to remove residual serum components. Migration assays were performed by the addition of PMN (40 μl) to HBSS ([…]) in the upper chambers after chemoattractant (1 μM fMLP in HBSS) was added to the opposing (lower) chambers. Unless otherwise indicated, PMN were not washed free of LXA4 prior to addition to monolayers, and therefore, a five-fold dilution of lipoxin was present during the migration assay. For apical-to-basolateral migration experiments, PMN (2×10^6) were added at time 0. Migration in the basolateral-to-apical direction, while qualitatively similar, is substantially more efficient than in the apical-to-basolateral direction. (Parkos C. A., et al. (1991). J. Clin. Invest. 88: 1605-1612). Therefore, 5-fold fewer PMN (4×10^5) were added when migration proceeded in the basolateral-to-apical direction in order that baseline migration signals be approximately equivalent in both directions. (Parkos C. A., et al. (1991). J. Clin. Invest. 88: 1605-1612). Migration was allowed to proceed for 120 minutes, unless otherwise noted. All PMN transepithelial migration experiments were performed in a 37° C. room to ensure that epithelial monolayers, solutions, plasticware, etc., were maintained at uniform 37° C. temperature.
Migration was quantitated by assaying for the PMN azurophilic granule marker myeloperoxidase (MPO) as described previously (Parkos C. A., et al. (1991). J. Clin. Invest 88: 1605-1612). Following each migration assay, non-adherent PMN were extensively washed from the surface of the monolayer and PMN cell equivalents (PMN CE), estimated from a standard curve, were assessed as the number of PMN's associated with the monolayer, the number which had completely traversed the monolayer (ie. across the monolayer into the reservoir bath), as well as the total number of transmigrating PMN (the sum of monolayer and reservoir-associated PMN).
Data Presentation: Individual experiments were performed using large numbers of uniform groups of monolayers and PMN from individual blood donors on individual days. PMN isolation was restricted to five different blood donors (repetitive donations) over the course of these studies. Myeloperoxidase assay data were compared by two-factor analysis of variance (ANOVA) or by comparison of means using Student's t-Test PMN migration results are represented as PMN CE derived from a daily standard PMN dilution curve. Monolayer-associated PMN are represented as the number of PMN CE per monolayer and reservoir-associated PMN (ie. PMN which had completely traversed the monolayer into the lower chamber) are represented as the number of PMN CE/ml (total volume of 1 ml). […]

[2] = tested on: human PMN migration across T84 epithelial monolayers; test: Effect of inhibitors on baseline and LXA4-elicited PMN transepithelial migration, apical-to-basolateral; format: cell-based
[3] = tested on: neutrophil transmigration across T84 monolayers; test: Neutrophil migration across inverted T84 monolayers (basolateral to apical), myeloperoxidase assay, Example 2; format: cell-based, human; conditions: FMLP 10^−6 M, PMN 6 × 10^6/cm^2
From the text: (§1) Preparation of monolayers: Normal or inverted monolayers can be constructed for a physiological microassay using the commercially available insert system (Costar inserts, 0.33 cm^2, 5 μm polycarbonate filters). The larger pore size is crucial for allowing neutrophils to penetrate the filter. Collagen 1 must coat the filters to allow attachment of T84 cells. Original descriptions of the collagen coat involved procedures in which the collagen was chemically crosslinked Dharmsathaphorn, K. et al; Meth. Enzymol. 192:354-389; 1990. Dharmsathaphom, K. et al; Am. J. Physiol. 246 (Gastrointest. Liver Physiol. 9):G204-G208; 1984.
Inverted monolayers can also be grown using this technique. For this 0.8 mm thick lexan rings having the same dimension of the base of Costar inserts are machined, deburred, cleaned by boiling with a trace of detergent and subsequently exhaustively washed, and attached to the underside of the insert using General Electric RTV Silicone glue (this underside ring is necessary for a peripheral electrical seal). After drying overnight, the inserts are sterilized by submersion in 70% ethanol (4-hr overnight), inverted onto a sterile petri dish in a hood, and allowed to dry. Collagen and cells are added to the filter (underside now facing up) exactly as with unmodified inserts and cells are allowed to attach for 4 hours before righting the inserts into the 24 well holding plates. Subsequent treatment of the monolayers is identical to that described above.
(§2) Isolation of neutrophils: Neutrophils are isolated from whole blood using a gelatin-sedimentation technique. Briefly, whole blood, anticoagulated with citrate/dextrose, is centrifuged at 300×g for 20 minutes (20° C.). The plasma and buffy coat are carefully removed using a curved, siliconized glass pipette which is attached to a vacuum trap. […]
Myeloperoxidase assay of neutrophil transepithelial migration: PMN contents of monolayers and lower chambers can be quantitated by assaying the PMN-specific azurophil granule marker, myeloperoxidase (MPO). […]

[4] = tested on: neutrophil transmigration across T84 monolayers; test: Neutrophil transmigration across T84 monolayers by resistance or myeloperoxidase assay, Example 2; format: cell-based, human; conditions: fMLP 10^−6 and 10^−7 M
From the text: as §1
as §2, with “trap. Care must be taken not to aspirate the interface between the buffy coat and RBC since this is where PMN reside.” for “trap.”
For measurements, bridges are positioned as described, and the spontaneous transepithelial electrical potential and the instantaneous potential generated by passing 25 μA of current are measured. […] Using these values and Ohm's Law, tissue resistance and transepithelial current are then calculated. […]

- effect on PMN migration in basolateral-to-apical direction [1]: no effect
- inhibition of PMN migration, basolateral-to-apical (total MPO activity) [1]: 7±4%
Compound: CCCCC[C@H](O)[C@H](O)/C=C/C=C/C=C\C=C\[C@@H](O)CCCC(=O)O (relative stereo) [LXB4, (5S, 14R, 15S)-trihydroxy-6,10,12-trans-8-cis-eicosatetraenoic acid]

- inhibition of PMN migration, basolateral-to-apical (total MPO activity) [1]: 16±6%
Compound: CCCCCC(O)C=CC=CC=CC=CC(O)C(O)CCCC(=O)O (stereo not drawn) [11-trans-LXA4]

Compound: CC1CNCCN1S(=O)(=O)c1cccc2cnccc12 (stereo not shown) [Compound H7]
- inhibition of PMN transepithelial migration compared to vehicle control ([2]; H7 100 μM final concentration): 91±4%

Compound: CC(C)c1ccc2c(c1)c(SC(C)(C)C)c(CC(C)(C)C(=O)O)n2Cc1ccc(Cl)cc1 [MK886]
- effect on LXA4-elicited increase in PMN transepithelial migration ([2]; MK886 10 ng/ml): did not effect
- effect on baseline fMLP driven PMN migration ([2]; MK886 10 ng/ml): did not alter

Compound: COc1ccc2c(c1)c(CC(=O)O)c(C)n2C(=O)c1ccc(Cl)cc1 [indomethacin]
- baseline PMN migration, % vehicle control ([2]; indomethacin 50 μM, 15 min, 37°C, fMLP gradient): 109±13 % vehicle control

Compound: N-formyl-Met-Leu-Phe [fMLP]
- Neutrophil Cell Equivalents In Monolayers [3]: 5.47 × 10^4
- Neutrophil Cell Equivalents In Opposite Reservoir [3]: 85.30^# × 10^4
- Neutrophil Cell Equivalents Total [3]: 90.77^# × 10^4
- stimulation of neutrophil transmigration [4]: effective in stimulating transmigration

Compound: pertussis toxin
- inhibition of control, LXA4-elicited migration ([2]; PMN pre-exposed to pertussis toxin 2 μg/ml, then LXA4): 87±4%
- inhibition of baseline fMLP driven migration compared to vehicle control ([2]; pertussis toxin 2 μg/ml): 91±8%
